Test results reported in patent US11826375B2, “Phosphinic amide prodrugs of tenofovir” (Merck Sharp & Dohme LLC, priority 2018, dated 2023).

Legend:
HIV-1 = assay: Human PBMC based HIV-1 replication assay; assay type: cell-based; conditions: PHA-activated human PBMCs, 24 h preincubation with compound, infected with GFP-encoding HIV-1 construct
Experimental: Assessing Antiviral Potency in a Human PBMC Based HIV-1 Replication Assay
The antiviral activity of the tenofovir prodrugs of the Examples herein was assessed in a human peripheral blood mononuclear cell (PBMC) based HIV-1 replication assay and performed as follows. Human PBMCs were treated with PHA ([…]) in RPMI 1640 medium containing 10% heat inactivated FBS for 2 to 3 days. Compound plates were prepared by dispensing compounds dissolved in DMSO into wells of 384 well poly-D-lysine-coated plates (0.2 μl/well) using an ECHO acoustic dispenser. Each compound was tested in a 10-point serial 3-fold dilution (typical final concentrations: 5.0 μM-0.1 nM). Controls included no inhibitor (DMSO only) and a combination of three antiviral agents (efavirenz, indinavir, an in-house integrase strand transfer inhibitor at final concentrations of 4 μM each). PHA-activated human PBMCs were added to the compound plates and incubated for 24 hours at 37° C./5% CO2/90% relative humidity. The PBMCs were then infected with an HIV-1 construct that encodes Green Fluorescence Protein (GFP) and the infected cells were incubated at 37° C./5% CO2/90% relative humidity for additional 24 hours.
Infected cells were quantified by counting the number of green cells in each well using an Acumen eX3 scanner. IC50 values were determined by non-linear 4-parameter curve fitting.

[1] = Prodrug stability assay in bio-relevant media (Pancreatin solution in FaSSIF); assay type: in vitro ADME; conditions: HPLC peak area of prodrug at 5 h / 0 h, 0.5 mg/mL Pancreatin in FaSSIF, 37° C.
Experimental: Prodrug Stability Assay in Bio-Relevant Media
The following assay was employed to evaluate the stability of the prodrugs in simulated gastrointestinal tract conditions. Preparation of fasted state simulated intestinal fluid (FaSSIF) using Phares SIF Powder was carried out according to protocols from Phare Drug Delivery AG (Baselland, Switzerland). For sample preparation, 10 μL stock solutions (10 mM) of prodrug substance in DMSO was added to 990 μL of 0.5 mg/mL Pancreatin solution (Fisher CAS #8049-47-6) in FaSSIF. Two samples were prepared for each compound. If the sample was a clear solution, it was directly analyzed by HPLC. If the sample was not clear, the sample was diluted with 100% MeCN, maintained at 37° C. and observed 5 h later. If the sample was clear, HPLC analysis was directly performed. If the sample was still not clear, the sample was diluted with 100% ACN and assayed by HPLC. All the samples were vortexed for 3 min and observed before injection. For the diluted samples, the area is multiplied by a dilution factor when the data is analyzed. The analysis was carried out with an Agilent 1100 series HPLC with autosampler. The column was a Poroshell 120 EC-C18, 4.6×50 mm, 2.7 μm. The flow rate was 1.8 mL/min, and the injection volume was 5 or 10 μL. UV detection was in the range 210-400 nm. […]

[2] = Human immunodeficiency virus 1, PBMC

CCCOC(=O)C(C)(C)NP(=O)(CO[C@H](C)Cn1cnc2c(N)ncnc21)C(C(=O)OC(C)C)C(=O)OC(C)C (single isomer, unassigned) [Example 2A]
IC50 (HIV-1): 73.9 nM

CCCOC(=O)C(C)(C)NP(=O)(CO[C@H](C)Cn1cnc2c(N)ncnc21)C(C(=O)OC(C)C)C(=O)OC(C)C (single isomer, unassigned) [Example 2B]
GI Tract stability [1]: 87.2%
IC50 (HIV-1): 6.8 nM

CCCOC(=O)C(C)(C)NP(=O)(CO[C@H](C)Cn1cnc2c(N)ncnc21)CC(=O)OC(C)C (single isomer, unassigned) [Example 3A]
IC50 (HIV-1; [2]): 189 nM

CCCOC(=O)C(C)(C)NP(=O)(CO[C@H](C)Cn1cnc2c(N)ncnc21)CC(=O)OC(C)C (single isomer, unassigned) [Example 3B]
IC50 (HIV-1): 226 nM

CCCOC(=O)C(C)(C)NP(=O)(CO[C@H](C)Cn1cnc2c(N)ncnc21)C(C#N)C#N (single isomer, unassigned) [Example 6A]
IC50 (HIV-1; [2]): > 2100 nM

CCCOC(=O)C(C)(C)NP(=O)(CO[C@H](C)Cn1cnc2c(N)ncnc21)C(C#N)C#N (single isomer, unassigned) [Example 6B]
IC50 (HIV-1): > 2100 nM

CCCOC(=O)C(C)(C)NP(=O)(CO[C@H](C)Cn1cnc2c(N)ncnc21)CC(=O)N(CC)CC (single isomer, unassigned) [Example 7A]
IC50 (HIV-1): 931 nM

CCCOC(=O)C(C)(C)NP(=O)(CO[C@H](C)Cn1cnc2c(N)ncnc21)CC(=O)N(CC)CC (single isomer, unassigned) [Example 7B]
IC50 (HIV-1): > 2100 nM

CCCOC(=O)C(C)(C)NP(=O)(CO[C@H](C)Cn1cnc2c(N)ncnc21)C(C#N)C(=O)OC(C)C (stereo partly drawn) [Example 1, Propyl 2-((((R)-1-(6-amino-9H-purin-9-yl)propan-2-yloxy)methyl)(1-cyano-2-isopropoxy-2-oxoethyl)phosphorylamino)-2-methylpropanoate]
IC50 (HIV-1; [2]): 1520 nM

CCCOC(=O)C(C)(C)NP(=O)(CC#N)CO[C@H](C)Cn1cnc2c(N)ncnc21 (stereo partly drawn) [Example 4, Propyl 2-((((R)-1-(6-amino-9H-purin-9-yl)propan-2-yloxy)methyl)(cyanomethyl)phosphorylamino)-2-methylpropanoate]
IC50 (HIV-1; [2]): > 2100 nM

CCCOC(=O)C(C)(C)NP(=O)(CO[C@H](C)Cn1cnc2c(N)ncnc21)C(C(=O)OC(C)C)c1ccccc1 (stereo partly drawn) [Example 5, Propyl 2-((((R)-1-(6-amino-9H-purin-9-yl)propan-2-yloxy)methyl)(2-isopropoxy-2-oxo-1-phenylethyl)phosphorylamino)-2-methylpropanoate]
IC50 (HIV-1; [2]): 58.8 nM

CCCOC(=O)C(C)(C)NP(=O)(CO[C@H](C)Cn1cnc2c(N)ncnc21)CC(=O)OC(C)(C)C (stereo partly drawn) [Example 8, Propyl 2-((((R)-1-(6-amino-9H-purin-9-yl)propan-2-yloxy)methyl)(2-tert-butoxy-2-oxoethyl)phosphorylamino)-2-methylpropanoate]
IC50 (HIV-1; [2]): > 2100 nM

CCCOC(=O)C(C)(C)NP(=O)(CO[C@H](C)Cn1cnc2c(N)ncnc21)Cc1ccccc1 (stereo partly drawn) [Example 9, Propyl 2-((((R)-1-(6-amino-9H-purin-9-yl)propan-2-yloxy)methyl)(benzyl)phosphorylamino)-2-methylpropanoate]
IC50 (HIV-1; [2]): 965 nM
